This is an account of results in article PMC10794137, “A new antibiotic traps lipopolysaccharide in its intermembrane transporter” (Nature, 2024).

The target in test [1] is His-tagged LptB2FG (ablLptB2FG) (Acinetobacter baylyi, UniProt Q6FFD6+Q6FFD7). Description: Radioligand binding SPA, LptB2FG.
Protocol: The binding of radioligand [^3H]-RO7223280 to ablLptB2FG and ablLptB2FGC was measured by bead-based SPA. All steps were performed in SEC buffer (20 mM Tris pH 7.5, 300 mM NaCl, 5% glycerol, 0.5 mM TCEP, 0.05% DDM ± 10 µM E.coli J5 LPS(Rc) [sequence] (Enzo Life Sciences)) and at 4 °C unless otherwise indicated. Purified protein was first incubated with Copper PVT HIS-tag beads (Perkin Elmer) for 1.5 h under gentle rotation. Twelve radioligand concentrations were added to the PVT–protein mix and incubated for another 30 min. […] The SPA plates were sealed (TopSeal, Perkin Elmer) and stored at 4 °C overnight. Before the measurement, plates were mixed on a shaker for 20 min, 750 rpm at room temperature and the seal was thoroughly wiped with antistatic spray to reduce electrostatic events. Scintillation data were recorded with a Topcount NXT C384, in the form of three independent replicates each consisting of three technical triplicates. Specific binding was calculated by subtracting non-specific binding raw counts from total binding raw counts. The dissociation constant Kd and standard deviation of the three independent replicates are reported and were calculated by the GraphPad Prism ‘One site – specific binding’ tool.
For test [2], the system named is His-tagged LptB2FGC (ablLptB2FGC). Particulars: SPA. As to the method:
The binding of radioligand [^3H]-RO7223280 to ablLptB2FG and ablLptB2FGC was measured by bead-based SPA. All steps were performed in SEC buffer (20 mM Tris pH 7.5, 300 mM NaCl, 5% glycerol, 0.5 mM TCEP, 0.05% DDM ± 10 µM E.coli J5 LPS(Rc) […] (Enzo Life Sciences)) and at 4 °C unless otherwise indicated. Purified protein was first incubated with Copper PVT HIS-tag beads (Perkin Elmer) for 1.5 h under gentle rotation. Twelve radioligand concentrations were added to the PVT–protein mix and incubated for another 30 min. […] The SPA plates were sealed (TopSeal, Perkin Elmer) and stored at 4 °C overnight. Before the measurement, plates were mixed on a shaker for 20 min, 750 rpm at room temperature and the seal was thoroughly wiped with antistatic spray to reduce electrostatic events. Scintillation data were recorded with a Topcount NXT C384, in the form of three independent replicates each consisting of three technical triplicates. Specific binding was calculated by subtracting non-specific binding raw counts from total binding raw counts. The dissociation constant Kd and standard deviation of the three independent replicates are reported and were calculated by the GraphPad Prism ‘One site – specific binding’ tool.

Test [3] relates to Acinetobacter baylyi ADP1 wild type. As to the kind of experiment: microbe, parasite or virus in culture. It is filed as cell-based. Particulars: A. baylyi wild type. The protocol: (§1) Culture, genetic manipulation and MIC measurements of A. baylyi ADP1 were conducted according to previously reported procedures[46],[51]. Point mutants were constructed in a two-step procedure following ref. [52] with the introduction and excision of the integration cassette at codon 66 of pepA, wherein the excising fragment of otherwise wild-type chromosomal DNA sequence from codon 406 of pepA to codon 193 of lptG bore the desired mutation and the resulting clones were screened by amplicon sequencing from codon 81 of HolC to codon 501 of GpmI, whereas lpxM deletion was achieved following the same procedure except that the integration cassette insertion and excision removed codons 79–279 of lpxM to avoid interference with neighbouring and overlapping genes that a larger deletion may risk and replaced codon 78 with an ochre stop codon to prevent a readthrough resulting in an aberrant fusion, with the excising fragment sequence spanning from codon 211 of sppA to codon 497 of ComA and verified by amplicon sequencing from codon 94 of MhpC to codon 327 of ComA as well as by absence of a PCR product corresponding to a region spanning codons 79 to 279 of lpxM to check for duplications. A deletion of the lon protease was made in the same manner to produce the stain used for expression and purification of LptB2FG to mimic the BL21 strain of E. coli used in the rest of purifications, for which the region encompassing 72 base pairs (bp) upstream of the lon start codon and 1 bp downstream of the lon stop codon was excised after being replaced with the same integration cassette, yielding a markerless deletion, with the excising fragment sequence spanning from codon 491 of ArnT to codon 40 of 45_DOPA_Dioxygenase and verified by amplicon sequencing spanning from codon 322 of ArnT to codon 221 of 45_DOPA_Dioxygenase as well as by absence of a PCR product corresponding to a region spanning from codons 328 to 768 of lon to check for duplications. Following amplicon confirmation, three validated isolates of each constructed mutant were tested for susceptibility to a panel of antibiotics with […] known mechanisms of action as a further validation step to ensure congruence of phenotypes across replicates, which was confirmed in all cases and one of the validated replicates was later used for MIC measurements reported here.
(§2) MIC determinations were performed by broth microdilution in line with CLSI guidelines (CLSI M07-A11 2018). Bacterial inocula were prepared by diluting overnight liquid cultures in LB. Antibacterial panels containing antibacterial solutions were inoculated with an appropriate volume of inoculum to give a final inoculum of about 5 × 10^5 c.f.u. ml^−1 and desired test concentrations of antibacterial agents in standard 96-well plates with 0.1 ml of culture per well. The test plates were incubated for 20–24 h and optical density (OD600) was recorded using a plate reader. MIC values corresponded to the lowest compound concentration inhibiting bacterial growth beyond which OD ceased to decrease.

Test [4] relates to Acinetobacter baylyi ΔlpxM. As to the kind of experiment: MIC by broth microdilution, A. baylyi ΔlpxM. The class given is cell-based. As to the method:
as §1, §2
For orientation: Broth dilution looks for growth in wells or tubes with falling amounts of substance.

Setting [5] is: Acinetobacter baylyi, ADP1WILDTYPE, read-out: MIC.

Where “and” joins values, the source holds several entries; their conditions need not be identical. Equal entries are not always repeated. Where two headings read alike, the source gives them in different places.

What is called Kd is the concentration at which binding is half-saturated. Higher therefore signals a looser complex.

His-tagged LptB2FG (ablLptB2FG), sequence (Q6FFD7 1-366): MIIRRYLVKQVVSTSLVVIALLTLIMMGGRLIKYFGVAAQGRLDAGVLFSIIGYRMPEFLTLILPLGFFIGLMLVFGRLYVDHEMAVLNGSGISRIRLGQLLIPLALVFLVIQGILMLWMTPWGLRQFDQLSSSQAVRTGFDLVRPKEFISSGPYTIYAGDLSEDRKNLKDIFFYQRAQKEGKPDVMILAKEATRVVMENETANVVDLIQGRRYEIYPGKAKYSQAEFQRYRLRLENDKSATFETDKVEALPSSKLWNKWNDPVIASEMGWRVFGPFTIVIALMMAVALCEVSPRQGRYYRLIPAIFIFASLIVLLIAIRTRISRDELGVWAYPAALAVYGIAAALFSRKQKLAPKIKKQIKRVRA
His-tagged LptB2FG (ablLptB2FG), sequence (Q6FFD6 1-356): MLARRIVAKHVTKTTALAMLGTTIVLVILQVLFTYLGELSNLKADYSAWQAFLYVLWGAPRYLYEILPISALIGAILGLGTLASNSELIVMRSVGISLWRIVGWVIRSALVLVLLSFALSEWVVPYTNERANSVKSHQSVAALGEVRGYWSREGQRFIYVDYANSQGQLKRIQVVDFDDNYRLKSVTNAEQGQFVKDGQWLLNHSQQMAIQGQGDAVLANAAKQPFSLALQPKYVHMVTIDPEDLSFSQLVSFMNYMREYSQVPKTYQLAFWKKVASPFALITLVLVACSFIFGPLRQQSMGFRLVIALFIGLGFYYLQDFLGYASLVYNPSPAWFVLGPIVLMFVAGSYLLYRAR
His-tagged LptB2FG (ablLptB2FG), sequence (Q6FC66 1-249 partner): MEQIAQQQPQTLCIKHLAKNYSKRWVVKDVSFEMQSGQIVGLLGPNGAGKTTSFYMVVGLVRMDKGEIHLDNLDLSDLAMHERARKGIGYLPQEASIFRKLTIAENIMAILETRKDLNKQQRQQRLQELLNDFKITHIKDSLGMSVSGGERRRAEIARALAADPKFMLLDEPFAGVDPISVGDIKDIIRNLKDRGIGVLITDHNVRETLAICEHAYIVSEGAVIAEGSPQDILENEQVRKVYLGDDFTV

Regarding `CN1C(=O)[C@H](CCCCN)NC(=O)[C@H](CCCN)NCc2cccnc2Sc2cccc(-c3ccc(C(=O)O)cc3)c2CNC(=O)[C@@H]1Cc1c[nH]c2ccccc12` [[^3H]-RO7223280], the “Binding of radiolabelled 2 to LptB2FG” value in test [1] (binding dependent on presence of LPS) is “bound to LptB2FG”. The compound further showed an equilibrium dissociation constant (Kd) in test [1] (used as constraint for Ki fit) of 86 nM. The “Binding of radiolabelled 2 to LptB2FGC” value in test [2] is recorded as “not LptB2FGC”.

`CN[C@H](CC(C)C)C(=O)N[C@H]1C(=O)N[C@@H](CC(N)=O)C(=O)N[C@H]2C(=O)N[C@H]3C(=O)N[C@H](C(=O)N[C@H](C(=O)O)c4cc(O)cc(O)c4-c4cc3ccc4O)[C@H](O)c3ccc(c(Cl)c3)Oc3cc2cc(c3O[C@@H]2O[C@H](CO)[C@@H](O)[C@H](O)[C@H]2O[C@H]2C[C@](C)(N)[C@H](O)[C@H](C)O2)Oc2ccc(cc2Cl)[C@H]1O` [Vancomycin]: the MIC is 500 µM and 700 µg/mL in test [3] (setting [5]); 17 µM and 25 µg/mL in test [4] (Acinetobacter baylyi).

For `CO[C@H]1/C=C/O[C@@]2(C)Oc3c(C)c(O)c4c(O)c(c(/C=N/N5CCN(C)CC5)c(O)c4c3C2=O)NC(=O)/C(C)=C\C=C\[C@H](C)[C@H](O)[C@@H](C)[C@@H](O)[C@@H](C)[C@H](OC(C)=O)[C@@H]1C` [Rifampicin], the MIC in test [3] (setting [5]) was 1.6 µM and 1.3 µg/mL; in test [4] (Acinetobacter baylyi) it was 0.6 µM and 0.5 µg/mL.

Turning to `CO[C@H]1[C@H](OC(=O)c2ccc(C)[nH]2)[C@H](O)[C@@H](Oc2ccc3c(O)c(NC(=O)c4c[nH]c(C(=O)Nc5c(O)c6ccc(O[C@H]7OC(C)(C)[C@@H](OC)[C@H](OC(=O)c8ccc(C)[nH]8)[C@@H]7O)c(C)c6oc5=O)c4C)c(=O)oc3c2C)OC1(C)C` [Coumermycin A1], the MIC in test [3] (setting [5]) is 5 µM and 6 µg/mL; in test [4] (Acinetobacter baylyi), 0.16 µM and 0.18 µg/mL.

For the compound `Oc1cc(Cl)ccc1Oc1ccc(Cl)cc1Cl` [Triclosan], the MIC is 0.126 µM and 0.036 µg/mL in test [3] (setting [5]); 0.03 µM and 0.009 µg/mL in test [4] (Acinetobacter baylyi).

Turning to Bacitracin, the MIC is 700 µg/mL in test [3]; 500 µM in test [3] (read-out: MIC); 20 µM and 30 µg/mL in test [4] (A. baylyi ΔlpxM).

In the case of `CO[C@@H]1[C@@H](OC(N)=O)[C@@H](O)[C@H](Oc2ccc3c(O)c(NC(=O)c4ccc(O)c(CC=C(C)C)c4)c(=O)oc3c2C)OC1(C)C` [Novobiocin], the MIC in test [3] (setting [5]) is 4 µM and 2 µg/mL; in test [4] (Acinetobacter baylyi), 0.6 µM and 0.4 µg/mL.
